Measured values: patent publication US11072632B2, “Inhibitors of 17β-HSD1, 17β-HSD3 and 17β-HSD10” (UNIVERSITÉ LAVAL, priority 2011, dated 2021)
Like-named read-outs stand apart in the source and are kept apart here.

Key:
17β-HSD3 [1] = target: T1, 17β-HSD3 (Homo sapiens, UniProt P37058); assay: Inhibition of 17β-HSD3 in homogenated HEK-293 cells; assay type: biochemical
T1 construct: expressed in transfected cells; host or cells: HEK-293 (homogenate)
T1 sequence (P37058 1-310): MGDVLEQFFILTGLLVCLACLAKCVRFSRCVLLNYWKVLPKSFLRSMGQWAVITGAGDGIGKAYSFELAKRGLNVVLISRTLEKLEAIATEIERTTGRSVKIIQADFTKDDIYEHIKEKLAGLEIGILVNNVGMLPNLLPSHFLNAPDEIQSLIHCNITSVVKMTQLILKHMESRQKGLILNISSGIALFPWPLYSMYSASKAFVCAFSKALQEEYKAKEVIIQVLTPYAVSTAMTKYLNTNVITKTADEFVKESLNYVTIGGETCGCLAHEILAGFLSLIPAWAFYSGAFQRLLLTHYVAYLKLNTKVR

17β-HSD3 [2] = target: T1, 17β-HSD3; assay: Inhibition of 17β-HSD3 in intact HEK-293 cells; assay type: cell-based; conditions: for inhibition at 0.1 µM: HEK293, 1 h
[3] = Table 3, read-out: Homo (%) (0.01 μM)
[4] = Table 3, read-out: Homo (%) (0.1 μM)
[5] = Table 3, read-out: Intact cells (%) (0.1 μM)

SMILES | Homo (%) (0.01 μM) (17β-HSD3 [1]; Table 3) | Homo (%) (0.1 μM) (17β-HSD3 [1]; Table 3) | Intact cells (%) (0.1 μM) (17β-HSD3 [2]; Table 3) | other results
C[C@]12CC[C@](O)(CN3CCN(Cc4cc(C(F)(F)F)ccc4C(F)(F)F)CC3)C[C@@H]1CC[C@@H]1[C@@H]2CC[C@]2(C)C(=O)CC[C@@H]12 [Compound 10h, (3α,5α)-3-({4-[2,5-bis(trifluoromethyl)benzyl]piperazin-1-yl}methyl)-3-hydroxyandrostan-17-one] | 18 | 85 | 12 | 
C[C@]12CC[C@](O)(CN3CCN(Cc4ccc(C(F)(F)F)cc4C(F)(F)F)CC3)C[C@@H]1CC[C@@H]1[C@@H]2CC[C@]2(C)C(=O)CC[C@@H]12 [Compound 10i, (3α,5α)-3-({4-[2,4-bis(trifluoromethyl)benzyl]piperazin-1-yl}methyl)-3-hydroxyandrostan-17-one] | 22 | 75 | 16 | 
C[C@]12CC[C@](O)(CN3CCN(Cc4cc(C(F)(F)F)cc(C(F)(F)F)c4)CC3)C[C@@H]1CC[C@@H]1[C@@H]2CC[C@]2(C)C(=O)CC[C@@H]12 [Compound 10j, (3α,5α)-3-({4-[3,5-bis(trifluoromethyl)benzyl]piperazin-1-yl}methyl)-3-hydroxyandrostan-17-one] | 25 | 83 | 25 | 
CC1CN(C[C@@]2(O)CC[C@@]3(C)[C@@H](CC[C@@H]4[C@@H]3CC[C@]3(C)C(=O)CC[C@@H]43)C2)C(C)CN1Cc1cc(C(F)(F)F)ccc1C(F)(F)F (stereo partly drawn) [Compound 11h, (3α,5α)-3-({(2ξ,5ξ)-4-[2,5-bis(trifluoromethyl)benzyl]-2,5-dimethylpiperazin-1-yl}methyl)-3-hydroxyandrostan-17-one] | 16 | 71 | 23 | 
CC1CN(CC2(O)CCC3(C)C(CCC4C5CCC(=O)C5(C)CCC43)C2)C(C)CN1Cc1ccc(C(F)(F)F)cc1C(F)(F)F (stereo not drawn) [Compound 11i, (3α,5α)-3-({(2ξ,5ξ)-4-[2,4-bis(trifluoromethyl)benzyl]-2,5-dimethylpiperazin-1-yl}methyl)-3-hydroxyandrostan-17-one] | 15 | 71 | 21 | 
CC1CN(C[C@@]2(O)CC[C@@]3(C)[C@@H](CC[C@@H]4[C@@H]3CC[C@]3(C)C(=O)CC[C@@H]43)C2)C(C)CN1Cc1cc(C(F)(F)F)cc(C(F)(F)F)c1 (stereo partly drawn) [Compound 11j, (3α,5α)-3-({(2ξ,5ξ)-4-[3,5-bis(trifluoromethyl)benzyl]-2,5-dimethylpiperazin-1-yl}methyl)-3-hydroxyandrostan-17-one] | 25 | 74 | 16 | 
C[C@]12CC[C@](O)(CN3CCN(C(=O)c4ccccc4)CC3)C[C@@H]1CC[C@@H]1[C@@H]2CC[C@]2(C)C(=O)CC[C@@H]12 [Compound 12a, (3α,5α)-3-hydroxy-3-{[4-(phenylcarbonyl)piperazin-1-yl]methyl}androstan-17-one] |  |  |  | inhibition at 0.01 µM (17β-HSD3 [1]; read-out: Homo (%) (0.01 μM), Table 3): 17%; inhibition at 0.1 µM (17β-HSD3 [1]; read-out: Homo (%) (0.1 μM), Table 3): 76%; inhibition at 0.1 µM (17β-HSD3 [2]; read-out: Intact cells (%) (0.1 μM), Table 3): 50%
C[C@]12CC[C@](O)(CN3CCN(C(=O)C4CCCCC4)CC3)C[C@@H]1CC[C@@H]1[C@@H]2CC[C@]2(C)C(=O)CC[C@@H]12 [Compound 12b, (3α,5α)-3-{[4-(cyclohexylcarbonyl)piperazin-1-yl]methyl}-3-hydroxyandrostan-17-one] | 19 | 75 |  | Intact cells (%), tested at 1 μM (17β-HSD3 [2]; Table 3, footnote b, 1 μM): N/A (70)^b %
C[C@]12CC[C@](O)(CN3CCN(C(=O)c4cccc(C(F)(F)F)c4)CC3)C[C@@H]1CC[C@@H]1[C@@H]2CC[C@]2(C)C(=O)CC[C@@H]12 [Compound 12d, (3α,5α)-3-hydroxy-3-[(4-{[3-(trifluoromethyl)phenyl]carbonyl}piperazin-1-yl)methyl]androstan-17-one] |  |  |  | inhibition at 0.01 µM (17β-HSD3 [1]; [3]): 10%; inhibition at 0.1 µM (17β-HSD3 [1]; [4]): 92%; inhibition at 0.1 µM (17β-HSD3 [2]; [5]): 91%
C[C@]12CC[C@](O)(CN3CCN(C(=O)c4ccc(C(F)(F)F)cc4)CC3)C[C@@H]1CC[C@@H]1[C@@H]2CC[C@]2(C)C(=O)CC[C@@H]12 [Compound 12e, (3α,5α)-3-hydroxy-3-[(4-{[4-(trifluoromethyl)phenyl]carbonyl}piperazin-1-yl)methyl]androstan-17-one] |  |  |  | inhibition at 0.01 µM (17β-HSD3 [1]; [3]): 22%; inhibition at 0.1 µM (17β-HSD3 [1]; [4]): 84%; inhibition at 0.1 µM (17β-HSD3 [2]; [5]): 56%
C[C@]12CCC(=O)C=C1CC[C@@H]1[C@@H]2CC[C@]2(C)C(=O)CC[C@@H]12 [Δ^4-dione, 4-androstene-3,17-dione, reference compound] |  |  |  | IC50 (17β-HSD3 [2]; intact HEK-293 cells overexpressing 17β-HSD3, [14C]-Δ4-dione 50 nM): 337 nM
